Results reported in patent US20110183336A1, “Method to Predict Responsiveness of Breast Cancer to Polyamine-Type Chemotherapy” (THE REGENTS OF THE UNIVERSITY OF CALIFORNIA, priority 2007, published 2011).
Where two headings read alike, the source gives them in different places.

What was measured:
[1] = tested on: panel of 42 breast cancer cell lines and 6 non-cancerous breast cell lines; assay: Cell growth inhibition assay, whole panel; format: cell-based; settings: whole breast cell line panel, 72 h
From the text: To better delineate the response of breast cancer cells to conformationally-restricted polyamines, we studied the anti-proliferation activity of CGC-11047 (SL-11047 or Compound 58 in Table 1) among the panel of 42 breast cancer cell lines and 6 non-cancerous breast cell lines (e.g., human mammary epithelial cells, HMEC) of known subtype (basal or luminal) with a plethora of genomic background mimicking the human breast tumors. Extensive genomic background of these cell lines have been reported by Neve et al. (2006).
Cell culture: Breast cell lines were obtained from the ATCC and from collections developed in the laboratories of Drs. Steve Ethier and Adi Gazdar.
Cell growth inhibition assay and data analysis: Cells were plated at proper density in 96-well plates such that they would remain in log growth at the end of assay time. The cells were allowed to attach overnight before being exposed to CGC-11047 for 72 h. Drugs were dissolved in water as 100 mM stock. […] The cell growth was determined using Cell Titer Glo (CTG) assay (CellTiter-Glo Luminescent Cell Viability Assay, Promega, Madison, Wis.), with slight modification form manufacturer's protocol, at day 0 (time when drug was added) and at day 3 of drug exposure. […] Luminescence from the assay was recorded using BIO-TEK FLx800. […]

HCC70 cells [2] = assay: BrdU incorporation and cell cycle distribution; format: cell-based, human; settings: select sensitive cell lines except T47D (FIG. 4: HCC70); 0.3, 10 and 300 uM; 48 and 72 hrs
Procedure: (§1) FIGS. 4A and 4B. Effect of CGC-11047 on HCC70 cells with respect to cell cycle and apoptosis. In FIG. 4A, cells were treated for 72 hours with 0, 0.3, 10, or 100 μM CGC-11047. Shown are percentage of the cell population is G0-G1, S, or G2-M phase of cell growth. In FIG. 4B, cells were treated for 42, 48, or 72 hours with 0.3, 10, or 300 μM CGC-11047. Shown is the caspase activity (apoptosis) of treated cells within each condition compared to untreated controls.
(§2) BrdU cell staining and labeling: After incubation of cells with CGC-11047 at specified concentrations for 24, 48, and 72 hours, cells were pulsed with a final BrdU concentration of 10 uM for 30 minutes. Cells were then fixed with −20° C. 70% ethanol overnight. Fixed cells were incubated with 2N HCl for 5-7 minutes to denature DNA. Cell were then rinsed with 1× PBS to neutralize HCl.
(§3) Cells were incubated with primary donkey anti-BrdU antibody (diluted 1:100 in 0.5% PBS-tween20) for 1 hour then rinsed well with 0.5% PBS-tween20. Cells were incubated with Hoechst 33642 (diluted 1:2000) and secondary anti-donkey antibody (diluted 1:500) for 45 minutes and washed well with PBS-tween. […]
(§4) Select sensitive cell lines were treated with CGC-11047 at 0.3, 10 and 300 uM. BrdU incorporation was measured and cell cycle distribution was analyzed at 48 and 72 hrs. Apoptosis was measured using the Promega Caspase Glo 3/7 assay.

HCC70 cells [3] = assay: Caspase Glo 3/7 assay (apoptosis); format: cell-based, human; settings: select sensitive cell lines except T47D (FIG. 4: HCC70); 0.3, 10 and 300 uM
Procedure: as §1
(§5) Caspase Glo assay: Apoptosis was measured using the Promega Caspase Glo 3/7 assay (Promega, Madison, Wis.). Lyophilized pellet was eluted in solvent to make working Caspase Glo reagent. After incubation of cells with CGC-11047 at specified concentrations for 24, 48, and 72 hours, 50 ul of Caspase Glo reagent was added to the wells. After an incubation time of 1 hour, luminescence was measured using a luminometer.
as §4

T47D cells [4] = assay: BrdU incorporation and cell cycle distribution; format: cell-based, human; settings: T47D (FIG. 5); 0.3, 10 and 300 uM; 48 and 72 hrs
Procedure: as §1, with “5A” for “4A”, “5B.” for “4B.”, “T47D” for “HCC70”, “5A,” for “4A,”, “5B,” for “4B,”
as §2, §3, §4

T47D cells [5] = assay: Caspase Glo 3/7 assay (apoptosis); format: cell-based, human; settings: T47D (FIG. 5); 0.3, 10 and 300 uM
Procedure: as §1, with “5A” for “4A”, “5B.” for “4B.”, “T47D” for “HCC70”, “5A,” for “4A,”, “5B,” for “4B,”
as §5, §4

`CCNCCCNC/C=C\CNCCCNCC` [CGC-11047] was tested, and the GI50 ([1]; Homo sapiens, read-out: median GI50) was ~40 µM, the GI50 ([1]; units given in the value, read-out: GI50 range of the cell lines tested) was 0.4 to 5000 µM and the “cell cycle distribution / BrdU incorporation” value (HCC70 cells [2]) was “growth inhibition is mainly caused by the delay in cell cycle, a G1 arrest”. For the same molecule, the “apoptosis (caspase 3/7 activity)” value (HCC70 cells [3]) was “very little apoptosis detected”, the “cell cycle distribution / BrdU incorporation” value (T47D cells [4]) was “very little changes in the cell cycle” and the “apoptosis (caspase 3/7 activity)” value (T47D cells [5]) was “significant accumulation of apoptosis”.
